Data set [1] has as its system muscle tissues. Also noted: species or system normal mice (129 SV). To be noted: mouse, in vivo, 6 mg/kg.
Method: (§2) To directly evaluate the effects of insulin/glucose on alpha-galactosidase uptake in vivo, normal (129 SV, 3-4 month, male) and Fabry mice (on 129SV background, 3-4 month, male) were used for uptake assays under different conditions.
(§3) Normal mice were fasted overnight from 5 p.m. to 9 a.m. next morning, and then divided into three groups. […] The second group directly received alpha-galactosidase injection (6 mg/kg) through tail vein as bolus injection; the third group was first gavaged with 0.5 ml of 50% glucose followed by subcutaneous injection of insulin (0.25 U) on the upper back 10 minutes later, after another 45 minutes, alpha-galactosidase was injected as for the second group. Two hours after alpha-galactosidase injection, different tissues (heart, diaphragm, tongue, muscle gastrocnemius, muscle vastus laterus, muscle paraspinal) were collected and assayed for alpha-galactosidase activity after homogenization in alpha-galactosidase assay buffer plus 1% of triton and 1× protease inhibitor cocktail.
The test system of data set [2] is muscle tissues. Conditions: mouse, in vivo.
Method: as §2, §3
Here, 4 groups of Fabry mice were used and similarly treated as for the normal mice. […]
A further data set has as its system L6 myotubes. The experiment in a line: Alpha-galactosidase uptake by L6 myotubes in vitro. The data set is classed as cell-based, rat. Conditions: 5 mM M6P; to the endogenous level. How it is done:
Muscles are the major target tissues for enzyme replacement therapy of Pompe disease due to the lack of acid alpha-glucosidase. To determine if the M6P/IGF-II receptor-mediated lysosomal enzyme uptake pathway can be augmented by insulin/glucose, the effects of insulin/glucose were analyzed on induced muscle cells (myotubes) in vitro. L6 myoblasts (or induced myotubes) and Hep3B cells were cultured in 6-well dishes. Rat L6 myoblasts (ATCC# CRL-1458) were cultured at 37° C. under 5% CO2 in VitaCell DMEM media (ATCC# 30-2002) with 4 mM L-glutamine, 10% fetal bovine serum (Gibco #16000-044) and 1× penicillin/streptomycin. Once confluent, cells were switched to VitaCell DMEM plus 2% horse sera (Gibco# 26050-088) and 1× penicillin/streptomycin. Media were changed every 3 days and at day 9-10, myotubes could be observed as multinuclear tubes. About 30-40% of the myoblasts formed myotubes. Cells were used for uptake assay at day 10. Hep3B cells were grown in MEM-eagle (Gibco# 11960-044) with 10% FBS, 1×NEAA, 1× sodium pyruvate and 1× penicillin/streptomycin.
Before the uptake assay, the cells were washed once with PBS and once with DMEM minus glucose media (Gibco#11966-025), then the cells were starved in 1.5 ml of DMEM minus glucose media for 1 hour at 37° C. […]

The next data set deals with mannose receptor. Conditions: cited from earlier work.
Data set [3] concerns asialoglycoprotein receptors (ASGPR). Conditions: cited from earlier work.
The test system of the next data set is spleen macrophages. Put plainly: CEREZYME enzyme uptake in vivo by isolated rat spleen macrophages. Set-up: species or system Fisher rats. As for the experimental part:
Quantitative analysis of the dexamethasone effects on CEREZYME® enzyme uptake in vivo was performed on macrophage cells isolated from spleens through the attachment method (Gessani S, 2000 #35). Fisher rats (female, 180-200 g) were used and divided into four groups. After dexamethasone (50 μg/rat) pretreatment and CEREZYME® enzyme (or unmodified glucocerebrosidase) injection, rat spleens were excised and cut into small pieces. The total spleen cells were released by pressing between two frosted cover slides, followed by washing with 15 ml of RPMI media containing 10% heat-inactivated FBS. Red blood cells were lysed with red blood cell lysis buffer (Sigma). The rest of the splenocytes were seeded in 150-mm tissue culture dishes and incubated at 37° C. for 1 hour for the attachment isolation of macrophages. 15 ml of media were added to five 150-mm tissue culture dishes as blanks for nonspecific protein binding. After removing the cells in suspension and washing the attached cells 5 times with PBS, the attached cells were lysed in KP buffer by scrapping and assayed for glucocerebrosidase activity and protein content. The average of protein content of the blank dishes was subtracted from each cell sample. For dose response of CEREZYME® enzyme to dexamethasone, rats pretreated with dexamethasone were injected with different doses of CEREZYME® enzyme as for the control groups without dexamethasone pretreatment. Attached cells (>90% spleen macrophages) were isolated for glucocerebrosidase assay as described above. […] The absolute enzyme activity, however, was ˜220% of the control without dexamethasone treatment (FIG. 4A). The dexamethasone effects were also tested at other CEREZYME® enzyme doses at 7 U/kg and 72 U/kg respectively, which are either below or above the saturation levels (Mistry, 1996 #10). As is shown in FIG. 4B, at both doses, the dexamethasone effects were about the same and increased CEREZYME® enzyme uptake to a similar level as with 18 U/kg of CEREZYME® enzyme, namely, about 3-fold increase after dosage correction. The absolute CEREZYME® enzyme activity was ˜250% of the control sample at 72 U/kg.

For a further data set, the system named is Hep3B cells. Put plainly: CEREZYME enzyme uptake by hepatocytes (Hep3B) in vitro. The data set is classed as cell-based. Conditions: dexamethasone treatment; result in words. As for the experimental part: The rat alveolar macrophage cell line NR 8383 (ATCC# CRL-2192) were cultured in Kaighn's modified F12K nutrient mixture (Gibco# 21127-002) with 2 mM L-glutamine (Gibco# 25030-081), 15% heat-inactivated fetal bovine serum (FBS) (Gibco# 16000-044) and 1× penicillin/streptomycin. Most of the cells were attached to the dish, with some in suspension. Hep3B cells were grown in MEM-eagle (Gibco# 11960-044) with Earles salts and 10% FBS, 1× non-essential amino acid (NEAA), 1× sodium pyruvate and 1× penicillin/streptomycin. Human liver sinusoidal endothelial cells (LSECS) (ACBRI#-566) were purchased from Applied Cell Biology Research Institute through Cell Systems, Inc. Cells were cultured in CS-C Media (CSC# 4Z0-500) with additional 10% FBS. During passage, the culture dishes or flasks were treated with attachment factor solution (CSC# 4Z0-210). Prior to seeding, the purity of the LSECs was confirmed by immunostaining with anti-VOA Willebrand factor (data not shown). […]
(§1) The lysates were used for glucocerebrosidase assay in duplicate or triplicate with 4-MU-beta-glucoside (Sigma# M-3633) as substrate and with CEREZYME® enzyme as standard. Proteins were quantified using a MicroBCA protein assay kit (Pierce) with BSA as standard. […]

In data set [4] the test system is spleen and bone marrow tissues. Put plainly: Glucocerebrosidase activity in rat spleen and bone marrow after CEREZYME enzyme injection. The data set is classed as in vivo, Fisher rats. Conditions: rats, 100 μg dexamethasone, 2.5 U CEREZYME; equals level of non-treated rats given 10 U. How it is done:
To assess the effect of dexamethasone treatment on CEREZYME® enzyme uptake by liver macrophage (Kupffer cells) in vivo, Fisher rats (female, ˜130 g) were divided into four groups (n=3). The first and second groups of rats only received vehicle PBS without dexamethasone, and the third and fourth groups were treated with water-soluble dexamethasone sodium phosphate (American Reagent Laboratories Inc.) at 10 μg and 100 μg (diluted into 200 μl PBS) per rat through intraperitoneal injection. Four doses of dexamethasone were given over two consecutive days, one dose in early morning and one dose in late afternoon on each day. On the third day, CEREZYME® enzyme at 2.5 U per rat (˜18 U/kg) diluted in PBS was administrated into the second, third and fourth groups of rats through tail vein bolus injection. The first group was used as negative control.
Direct measurement of glucocerebrosidase activity in spleen, liver and bone marrow tissues after CEREZYME® enzyme uptake was also assessed in another set of experiments. Five groups of rats were used (n=3). The first four groups were treated in the same manner as described above, whereas the fifth group of rats was not treated with dexamethasone but received 10 U of CEREZYME® enzyme per rat and used as positive controls. […] The supernatants were saved and measured for glucocerebrosidase activity and normalized to protein content as described above.

Data set [5] concerns rat alveolar macrophage cell line NR 8383. The experiment in a line: CEREZYME enzyme uptake by rat alveolar macrophage cells in vitro. The data set is classed as cell-based. As for the experimental part:
The rat alveolar macrophage cell line NR 8383 (ATCC# CRL-2192) were cultured in Kaighn's modified F12K nutrient mixture (Gibco# 21127-002) with 2 mM L-glutamine (Gibco# 25030-081), 15% heat-inactivated fetal bovine serum (FBS) (Gibco# 16000-044) and 1× penicillin/streptomycin. Most of the cells were attached to the dish, with some in suspension. Hep3B cells were grown in MEM-eagle (Gibco# 11960-044) with Earles salts and 10% FBS, 1× non-essential amino acid (NEAA), 1× sodium pyruvate and 1× penicillin/streptomycin. Human liver sinusoidal endothelial cells (LSECS) (ACBRI#-566) were purchased from Applied Cell Biology Research Institute through Cell Systems, Inc. Cells were cultured in CS-C Media (CSC# 4Z0-500) with additional 10% FBS. During passage, the culture dishes or flasks were treated with attachment factor solution (CSC# 4Z0-210). Prior to seeding, the purity of the LSECs was confirmed by immunostaining with anti-VOA Willebrand factor (data not shown).
For dexamethasone or other drug treatment, the cells were incubated with the drugs under various conditions as indicated in each figure legend (FIGS. 1A-F). […]
as §1

Like-named read-outs stand apart in the source and are kept apart here.

Consider eight molecules from patent publication US7658916B2, “Methods of enhancing lysosomal storage disease therapy by modulation of cell surface receptor density” (Genzyme Corporation, priority 2002, dated 2010).

“alpha-galactosidase: recombinant human alpha-galactosidase, used as a model M6P-bearing lysosomal enzyme”: in the data set with muscle tissues [1], the “alpha-galactosidase activity in muscle tissues after injection alone” value was “increased its activity in all the muscle tissues”. Moreover, in the data set with muscle tissues [2], the “alpha-galactosidase activity in tissues relative to wildtype tissues” value is “about similar levels” and the “increase in alpha-galactosidase activity in heart over wildtype tissue” value was “more than 10 fold”.
Consider `O=P(O)(O)OC[C@H]1OC(O)[C@@H](O)[C@@H](O)[C@@H]1O` (stereo partly drawn) [M6P], for which the “inhibition of alpha-galactosidase uptake by myotubes” value in the data set on L6 myotubes is given as “entire alpha-galactosidase uptake can be inhibited”.
Regarding prostaglandin E, in the data set on mannose receptor, the “enhancement of mannose receptor cell surface expression on macrophages” value is 4-6 fold.
For Interferon alpha, the entries for the “inhibition of binding and uptake of asialoglycoproteins” value in data set [3] (after 3-6 hour treatment) and in data set [3] (after 24 hour treatment) were 50% and roughly 100%, respectively.
With `C[C@@H]1C[C@H]2[C@@H]3CCC4=CC(=O)C=C[C@]4(C)[C@@]3(F)[C@@H](O)C[C@]2(C)[C@@]1(O)C(=O)CO` [dexamethasone], in the data set on spleen macrophages (CEREZYME 7 U/kg and 72 U/kg), the “increase in CEREZYME enzyme uptake by spleen macrophages after dosage correction” value is “about 3 fold”. In addition, the “absolute enzyme activity in spleen macrophages, % of control without dexamethasone” value with spleen macrophages (CEREZYME 18 U/kg) is listed as roughly 220%. Also, in the data set with spleen macrophages (CEREZYME 72 U/kg), the “absolute CEREZYME enzyme activity in spleen macrophages, % of control sample” value was roughly 250%. Also, in the data set on spleen macrophages (dexamethasone 50 μg/rat, CEREZYME 18 U/kg), the “increase in CEREZYME enzyme uptake by spleen macrophages after normalizing the dose contribution” value is listed as “at least 3 fold”. For the same molecule, the “effect on CEREZYME enzyme uptake by hepatocytes” value in the data set on Hep3B cells is on record as “did not significantly enhance”. In addition, in data set [4], the “increase of total glucocerebrosidase activity in spleen” value was determined as 4 fold. The “increase of CEREZYME enzyme uptake by rat alveolar macrophage cells” value in data set [5] (after two days, separate experiment) was 250-350%.

B1: interleukin-4: cytokine shown to enhance mannose receptor cell surface expression on macrophages (protein, UniProt P05112 25-153, looked up)
Interleukin-4: HKCDITLQEIIKTLNSLTEQKTLCTELTVTDIFAASKNTTEKETFCRAATVLRQFYSHHEKDTRCLGATAQQFHRHKQLIRFLKRLDRNLWGLAGLNSCPVKEANQSTLENFLERLKTIMREKYSKCSS
For the molecule B1, in the data set with mannose receptor, the “enhancement of mannose receptor cell surface expression on macrophages” value is 10-15 fold.

B2: interferon-gamma: cytokine that down-regulates mannose receptors and asialoglycoprotein receptors (protein, UniProt P01579 24-161, looked up)
Interferon gamma: QDPYVKEAENLKKYFNAGHSDVADNGTLFLGILKNWKEESDRKIMQSQIVSFYFKLFKNFKDDQSIQKSVETIKEDMNVKFFNSNKKKRDDFEKLTNYSVTDLNVQRKAIHELIQVMAELSPAAKTGKRKRSQMLFRG
In the case of B2, the “inhibition of binding and uptake of asialoglycoproteins” value in [3] (after 3-6 hour treatment) was 50%; in [3] (after 24 hour treatment) it was roughly 100%.

B3: mouse interferon-gamma: mouse interferon-γ, species-specific down-regulator of mannose receptor expression on macrophage cells (protein, UniProt P01580 23-155, looked up)
Interferon gamma: HGTVIESLESLNNYFNSSGIDVEEKSLFLDIWRNWQKDGDMKILQSQIISFYLRLFEVLKDNQAISNNISVIESHLITTFFSNSKAKKDAFMSIAKFEVNNPQVQRQAFNELIRVVHQLLPESSLRKRKRSRC
In the case of B3, in [5] (result in words), the “effect on CEREZYME enzyme uptake by macrophage cells” value is “did not enhance or inhibit”.
